Experimental data taken from patent US20080015194A1, “METHODS AND COMPOSITIONS OF TARGETED DRUG DEVELOPMENT” (priority 2006, published 2008).
Read-outs that look alike come from different tables or passages of the source.

Columns and labels:
[1] = molecular target: T1, EGFR (Rattus norvegicus, UniProt G3V6K6); experiment: Inhibition of [125I]EGF binding to EGFR, radioligand filtration assay (NovaScreen); conditions: rat liver membranes
T1 construct: Receptor source was rat liver membranes; tissue NovaScreen BioSciences; host or cells: rat liver membranes
T1 sequence (G3V6K6 25-1209): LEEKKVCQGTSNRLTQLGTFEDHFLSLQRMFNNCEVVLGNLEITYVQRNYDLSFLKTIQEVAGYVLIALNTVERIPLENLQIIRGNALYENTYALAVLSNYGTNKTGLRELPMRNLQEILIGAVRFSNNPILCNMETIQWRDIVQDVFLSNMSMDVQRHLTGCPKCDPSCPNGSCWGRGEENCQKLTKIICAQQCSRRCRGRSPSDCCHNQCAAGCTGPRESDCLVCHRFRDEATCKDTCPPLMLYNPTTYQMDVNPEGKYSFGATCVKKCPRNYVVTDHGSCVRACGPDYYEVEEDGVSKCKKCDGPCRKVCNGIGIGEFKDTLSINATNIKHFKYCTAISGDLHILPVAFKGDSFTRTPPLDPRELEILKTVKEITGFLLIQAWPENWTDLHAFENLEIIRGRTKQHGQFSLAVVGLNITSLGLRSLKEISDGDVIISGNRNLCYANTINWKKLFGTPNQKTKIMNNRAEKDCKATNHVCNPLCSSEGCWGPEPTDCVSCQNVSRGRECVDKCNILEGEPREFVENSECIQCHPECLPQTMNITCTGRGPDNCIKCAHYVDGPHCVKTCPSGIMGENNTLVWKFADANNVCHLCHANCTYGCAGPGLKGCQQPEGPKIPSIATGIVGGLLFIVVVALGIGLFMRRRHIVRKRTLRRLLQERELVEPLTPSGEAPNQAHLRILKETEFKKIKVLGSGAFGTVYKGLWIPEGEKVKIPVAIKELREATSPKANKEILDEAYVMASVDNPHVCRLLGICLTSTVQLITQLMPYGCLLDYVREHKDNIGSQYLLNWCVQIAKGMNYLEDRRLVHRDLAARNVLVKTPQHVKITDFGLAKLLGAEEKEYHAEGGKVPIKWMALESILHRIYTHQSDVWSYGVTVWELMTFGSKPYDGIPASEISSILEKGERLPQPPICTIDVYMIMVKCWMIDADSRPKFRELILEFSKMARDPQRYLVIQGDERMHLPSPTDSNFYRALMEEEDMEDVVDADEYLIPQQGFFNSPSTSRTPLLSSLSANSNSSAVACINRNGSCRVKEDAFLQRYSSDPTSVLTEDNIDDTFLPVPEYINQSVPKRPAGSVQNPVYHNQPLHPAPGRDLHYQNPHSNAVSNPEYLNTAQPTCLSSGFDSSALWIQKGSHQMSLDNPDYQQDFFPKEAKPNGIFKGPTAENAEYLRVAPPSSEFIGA
Procedure: Identified compounds, representing various pharmacaphore models, were tested for ability to inhibit EGFR at 25 μM.
AD4-compounds were identified using pharmacophore models (see Example 4) and then were docked with the binding site of EGFR (SEQ ID NO: 1) that is recognized by defined CDRs of cetuximab. The inhibition of epidermal growth factor binding by AD4-compounds was then determined (NovaScreen BioSciences, Hanover, Md.). Inhibition of EGF binding was determined at 25 μM concentration.
Receptor source was rat liver membranes. The radioligand was [^125I]EGF ([…]) at a final ligand concentration of 0.36 nM. A non-specific determinant was used as EGF—[100 nM]. The reference compound and positive control was EGF. Reactions were carried out in 10 mM HEPES (pH 7.4) containing 0.1% BSA at 25 °C for 60 minutes. The reaction was terminated by rapid vacuum filtration onto glass fiber filters. Radioactivity trapped onto the filters was determined and compared to control values to ascertain any interactions of test compounds with the EGF binding site. The EGF inhibitor assays were modified from, for example, Mukku (1984) J. Biol. Chem. 259, 6543-6546; Duh et al. (1990) World J. Surgery 14, 410-418; Lokeshwar et al. (1989) J. Biol. Chem. 264(32), 19318-19326.

[2] = molecular target: EGF receptor of rat liver membranes (rat); experiment: radioligand binding of [125I]EGF to rat liver membranes, filtration (NovaScreen)
[3] = inhibition of [125I]EGF binding at 25 μM, read-out: EGFR INHIBITION
[4] = 25 μM compound, [125I]EGF 0.36 nM, read-out: inhibition of binding of EGF to EGFR
[5] = 25 μM compound, [125I]EGF 0.36 nM

Compound	inhibition at 25 µM [1, 3]	further results
CCNc1nc(N)nc(Oc2ccc(OCc3ccccc3)nn2)n1 [AD4-1176]	34%	
Cc1ccc(Cl)cc1NC(=O)CC(C(=O)O)N1CCNCC1 (stereo not shown) [AD4-1165]	47.2%	
COc1cc(/C=N/NC(=O)c2ccc(O)cc2O)ccc1O [AD4-1057]	30.1%	
NC(=O)C1CCN(C2CC(=O)N(c3ccc(C(=O)O)cc3)C2=O)CC1 (stereo not shown) [AD4-1108]	33.1%	
O=C(CC(NCC1CCCO1)C(=O)O)Nc1cccc(Cl)c1 (stereo not shown) [AD4-1039]	31.7%	inhibition at 25 µM [1, 4]: 32%
O=C(O)Cn1nnc(-c2ccc(OCc3ccccc3)cc2)n1 [AD4-1020, {5-[4-(benzyloxy)phenyl]-2H-tetrazol-2-yl}acetic acid]	47.8%	inhibition of binding of EGF to EGFR [1, 5]: 48%; inhibition at 25 µM [1, 4]: 47.8%
Oc1ccc(/C=N/N=C/c2ccc(O)cc2O)c(O)c1 [AD4-1018]	36.2%	
COC(=O)c1cc(NC(=O)CSc2nc(C)cc(=O)[nH]2)cc(C(=O)OC)c1 [AD4-1147]	43.4%	
CCN(CC)c1ccc(NC(=O)C(CC(=O)O)NCc2ccccc2)cc1 (stereo not shown) [AD4-1167]	30.6%	
O=C(O)Cn1nnc(-c2ccc(OCc3c(F)cccc3Cl)cc2)n1 [AD4-1175]	35.1%	
CCOc1cc(C=C2C(=O)NC(=O)NC2=O)ccc1CC(=O)O [AD4-1121]	35%	
Cc1cccc(NC(=O)CC(NCCN2CCOCC2)C(=O)O)c1 (stereo not shown) [AD4-1166]	31.2%	
Cc1cccc(NC(=O)C(CC(=O)O)NCc2ccccc2)c1 (stereo not shown) [AD4-1155]	30.1%	
Cn1c(=O)c2c(nc(SCCCO)n2Cc2ccccc2)n(C)c1=O [AD4-1060]	30.2%	
Cc1ccc(OCCn2c(SCCO)nc3c(N)ncnc32)cc1 [AD4-1128]	38%	
O=C(O)CC(NCc1ccccc1)C(=O)Nc1ccc(Cl)cc1 (stereo not shown) [AD4-1171]	47.2%	
O=C(O)CCCN1C(=O)/C(=C/c2cccc(O)c2)SC1=S [AD4-1109]	36.5%	
CN(C1=NC(=O)C(CC(=O)O)S1)c1ccc(O)cc1 (stereo not shown) [AD4-1038, {2-[(4-Hydroxy-phenyl)-methyl-amino]-4-oxo-4,5-dihydro-thiazol-5-yl}-acetic acid]	70.9%	inhibition at 25 µM [1, 4]: 70.7%
CCCC(NC(=O)CCc1c(C)c2ccc(O)cc2oc1=O)C(=O)O (stereo not shown) [AD4-1047]	32.7%	
O=C(O)C[C@H](NCc1cccnc1)C(=O)Nc1ccc(Cl)cc1 [AD4-1025, N^1-(4-chlorophenyl)-N^2-(3-pyridinylmethyl)-alpha-asparagine]	75.7%	inhibition of binding of EGF to EGFR [1, 5]: 76%; inhibition at 25 µM [1, 4]: 75.7%
O=C(O)CCc1ccc(-c2ccc(Cl)cc2)n1CCC(=O)O [AD4-1027]	38.6%	inhibition at 25 µM [1, 4]: 39%

Compound	inhibition at 25 µM [1, 3]	further results
CC(Oc1ccc(C(=O)NCCc2ccccc2)cc1)C(=O)O (stereo not shown) [AD4-1021]	43.4%	inhibition at 25 µM [1, 4]: 43%
O=C(CSc1ccccc1)Nc1ccc(O)c(C(=O)O)c1 [AD4-1178]	34.6%	
NC(=O)CCC(Nc1ncnc2ccccc12)C(=O)O (stereo not shown) [AD4-1148]	43.2%	
O=C(O)COc1ccc(C(=O)NCc2ccccc2)cc1 [AD4-1150]	43.1%	
Oc1ccc(-c2csc(NCc3ccco3)n2)c(O)c1 [AD4-1133]	37.3%	
CC1=C(C(=O)Nc2cccc(C)c2)C(c2ccc(O)cc2)NC(=O)N1 (stereo not shown) [AD4-1010, 4-(4-hydroxyphenyl)-6-methyl-N-(3-methylphenyl)-2-oxo-1,2,3,4-tetrahydro-5pyrimidinecarboxamide]	39.4%	inhibition at 25 µM [1, 4]: 39.4%
O=C(O)c1ccccc1SC1CC(=O)N(c2ccc(O)cc2)C1=O (stereo not shown) [AD4-1141]	46.7%	
O=C(N/N=C/c1cc(Cl)ccc1O)c1ccc(O)cc1 [AD4-1017]	35%	
Cc1ccc(OCC(=O)Nc2ccc(O)cc2C(=O)O)c(C)c1 [AD4-1132, 2-{[(2,4-dimethylphenoxy)acetyl]amino}-5-hydroxybenzoic acid]	59.6%	inhibition at 25 µM [1, 4]: 59.6%
O=C(O)COc1ccc(-c2nnn(CC(=O)O)n2)cc1 [AD4-1169]	31.4%	
CCOc1ccc(/C(C)=N/N=C2\NC(=O)C(CC(=O)O)S2)cc1 (stereo not shown) [AD4-1016]	37.8%	
O=C(NC(=S)Nc1ccc(O)c(C(=O)O)c1)c1ccccc1 [AD4-1123]	34.1%	
CN(Cc1ccccc1)S(=O)(=O)c1ccc(O)c(C(=O)O)c1 [AD4-1153]	34%	
O=C(O)Cn1nnc(-c2ccc(OCc3cccc(C(F)(F)F)c3)cc2)n1 [AD4-1164]	33.3%	
O=C1Nc2ccccc2C1(O)C/C(=N/O)c1ccc2c(c1)OCCO2 (stereo not shown) [AD4-1124]	33.1%	
O=C(O)CC(NCc1ccco1)C(=O)Nc1ccc2ccccc2c1 (stereo not shown) [AD4-1149]	33.6%	
[125I]EGF (epidermal growth factor radioligand)		Bmax (receptor number) (fmol/mg tissue (wet weight)) [2]: 43; Kd [2]: 1.04 nM
Cc1cc(C)c(OCC(=O)Nc2cc(O)ccc2C(=O)O)cc1C [AD4-1022]	38.6%	inhibition at 25 µM [1, 4]: 39%
COc1cccc(OCC(=O)Nc2ccccc2C(=O)O)c1 [AD4-1030]	37.7%	inhibition at 25 µM [1, 4]: 38%
O=C(CC1SC(Nc2ccc(O)cc2)=NC1=O)Nc1ccc(Br)cc1 (stereo not shown) [AD4-1140]	36.5%	
Cc1ccc(C(=O)Nc2ccc(C(=O)NCCCC(=O)O)cc2)o1 [AD4-1139]	39%	
